Data taken from ChEMBL document CHEMBL1201862, “PubChem BioAssay data set” (2004).
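Briefly, cells in 96-well plates were exposed to five compound concentrations for 48 h, and endpoints were estimated by linear interpolation. The concentration for 50% growth inhibition is given as GI50.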 The source made the active and inactive calls. No stated cut-off is given here; in the data, active = GI50 up to about 1.1 µM and inactive = higher.

Tests used:
Assay in all cases: DTP human tumour cell line panel, 48 h
[1] = system: NCI-H460
[2] = system: HOP-92
[3] = system: HCT-116
[4] = system: RPMI-8226
[5] = system: SK-OV-3
[6] = system: 786-0
[7] = system: NCI-H226
[8] = system: NCI-H23
[9] = system: MOLT-4
[10] = system: COLO 205
[11] = system: CCRF-CEM
[12] = system: HCC 2998
[13] = system: SK-MEL-28
[14] = system: HOP-62
[15] = system: SNB-75
[16] = system: A549
[17] = system: OVCAR-8
[18] = system: HT-29
[19] = system: EKVX

Measured: GI50

CC(=O)C1(O)CCC2(O)C3(O)CC=C4CC(O)CCC4(C)C3CC(OC(=O)c3ccc(O)cc3)C12C.COC1CC(OC2C(C)OC(OC3C(C)OC(OC4CCC5(C)C(=CCC6(O)C5CC(OC(=O)c5ccc(O)cc5)C5(C)C(O)(C(C)=O)CCC65O)C4)CC3OC)CC2OC)OC(C)C1O (stereo not given)
inactive: [1] 34.2 µM | [2] 21.1 µM | [3] 10 µM | [4] 27.5 µM | [5] 36.7 µM | [6] 23.7 µM | [7] 34.4 µM | [8] 28.9 µM | [9] 30.5 µM | [10] 26.9 µM | [11] 32.4 µM | [12] 26.9 µM | [13] 29 µM | [14] 31.6 µM | [15] 76.4 µM | [16] 30.5 µM | [17] 29.9 µM | [18] 31.4 µM | [19] 35.4 µM

C=Cc1cncc(C#N)c1CCc1c(C#N)cncc1C=C
inactive: [1] > 10 µM | [2] > 10 µM | [3] > 10 µM | [4] > 10 µM | [5] > 10 µM | [6] > 10 µM | [7] > 10 µM | [8] > 10 µM | [9] > 10 µM | [10] > 10 µM | [11] > 10 µM | [12] > 10 µM | [13] > 10 µM | [14] > 10 µM | [15] > 10 µM | [16] > 10 µM | [17] > 10 µM | [18] > 10 µM | [19] 49 µM

COC(=O)C1(Cc2ccccc2)Cc2cc3c(cc2C1O)CCC3 (stereo not given)
inactive: [1] 30.1 µM | [2] 16 µM | [3] 17.9 µM | [4] 22.7 µM | [5] 17 µM | [6] 13.6 µM | [7] 19.5 µM | [8] 15 µM | [9] 17.5 µM | [10] 21.3 µM | [11] 16.1 µM | [12] 24.9 µM | [13] 16.1 µM | [14] 19.3 µM | [15] 34.8 µM | [16] 24 µM | [17] 25.6 µM | [18] 13.8 µM | [19] 22.9 µM

CC(=O)NC(CCCCNCc1ccccc1)C(=O)NCc1ccccc1 (stereo not given)
inactive: [1] > 100 µM | [2] > 100 µM | [3] > 100 µM | [4] > 100 µM | [5] > 100 µM | [6] > 100 µM | [7] > 100 µM | [8] > 100 µM | [9] > 100 µM | [10] > 100 µM | [11] > 100 µM | [12] > 100 µM | [13] > 100 µM | [14] > 100 µM | [15] 30.5 µM | [16] > 100 µM | [17] > 100 µM | [18] > 100 µM | [19] > 100 µM

COC(=O)C(=O)CC(=O)CCn1ncc(Cl)c(Cl)c1=O
inactive: [1] 19.7 µM | [2] 15.7 µM | [3] 15.1 µM | [4] 12.8 µM | [5] 31 µM | [6] 21.7 µM | [7] 24.2 µM | [8] 13.2 µM | [9] 6.19 µM | [10] 14.3 µM | [11] 3.59 µM | [12] 7.45 µM | [13] 14 µM | [14] 22.7 µM | [15] 20.8 µM | [16] 19.9 µM | [17] 13.3 µM | [18] 11.5 µM | [19] 19.5 µM

COC1=CC(=O)C2C(C1=O)[C@@H]1c3ccccc3OC[C@H]21 (stereo not given in full)
inactive: [1] > 100 µM | [2] > 100 µM | [3] > 100 µM | [4] > 100 µM | [5] > 100 µM | [6] > 100 µM | [7] > 100 µM | [8] > 100 µM | [9] > 100 µM | [10] > 100 µM | [11] > 100 µM | [12] > 100 µM | [13] > 100 µM | [14] > 100 µM | [15] > 100 µM | [16] > 100 µM | [17] > 100 µM | [18] > 100 µM | [19] > 100 µM

CN(C)c1[se]nc2c1c(=O)n(C)c(=O)n2C
inactive: [1] > 100 µM | [2] > 100 µM | [3] > 100 µM | [4] > 100 µM | [5] > 100 µM | [6] > 100 µM | [7] > 100 µM | [8] > 100 µM | [9] > 100 µM | [10] > 100 µM | [11] > 100 µM | [12] > 100 µM | [13] > 100 µM | [14] > 100 µM | [15] 58.5 µM | [16] > 100 µM | [17] > 100 µM | [18] > 100 µM | [19] > 100 µM

Cc1ccc(S(=O)(=O)NC2CCCCO2)cc1 (stereo not given)
inactive: [1] > 100 µM | [2] > 100 µM | [3] > 100 µM | [4] > 100 µM | [5] > 100 µM | [6] > 100 µM | [7] > 100 µM | [8] > 100 µM | [9] > 100 µM | [10] > 100 µM | [11] > 100 µM | [12] > 100 µM | [13] > 100 µM | [14] > 100 µM | [15] > 100 µM | [16] > 100 µM | [17] > 100 µM | [18] > 100 µM | [19] > 100 µM

CCC1(CN(C)C)CC/C(=C\c2ccc(OC)c(OC)c2)C1=O (stereo not given)
inactive: [1] > 100 µM | [2] > 100 µM | [3] > 74.5 µM | [4] 18.2 µM | [5] > 100 µM | [6] > 100 µM | [7] > 100 µM | [8] > 100 µM | [9] 40.2 µM | [10] 76.6 µM | [11] > 68.9 µM | [12] > 100 µM | [13] > 100 µM | [14] > 100 µM | [15] > 67.8 µM | [16] > 100 µM | [17] > 100 µM | [18] 58.2 µM | [19] > 54.6 µM

C=Cc1ccc(C)[n+](C[Si](C)(C)O[Si](C)(C)C[n+]2cc(C=C)ccc2C)c1
inactive: [1] > 100 µM | [2] > 100 µM | [3] > 100 µM | [4] > 100 µM | [5] > 100 µM | [6] > 100 µM | [7] > 100 µM | [8] > 100 µM | [9] > 100 µM | [10] > 100 µM | [11] > 100 µM | [12] > 100 µM | [13] > 100 µM | [14] > 100 µM | [15] > 100 µM | [16] 71.8 µM | [17] > 100 µM | [18] > 100 µM | [19] 54.2 µM
